Laboratory results published in publication PMC9229843, “Cancer-Related Somatic Mutations in Transmembrane Helices Alter Adenosine A1 Receptor Pharmacology” (Molecules, 2022).
Substitutions are numbered along the chain they refer to.

Legend:
[1] = biological target: T1, hA1AR D55V^2.50 (Homo sapiens, UniProt P30542, D55V); assay: yeast liquid growth assay; assay type: cell-based; settings: result in words
T1 construct: expressed in transfected cells; host or cells: S. cerevisiae MMY24
T1 sequence (P30542 1-326 D55V): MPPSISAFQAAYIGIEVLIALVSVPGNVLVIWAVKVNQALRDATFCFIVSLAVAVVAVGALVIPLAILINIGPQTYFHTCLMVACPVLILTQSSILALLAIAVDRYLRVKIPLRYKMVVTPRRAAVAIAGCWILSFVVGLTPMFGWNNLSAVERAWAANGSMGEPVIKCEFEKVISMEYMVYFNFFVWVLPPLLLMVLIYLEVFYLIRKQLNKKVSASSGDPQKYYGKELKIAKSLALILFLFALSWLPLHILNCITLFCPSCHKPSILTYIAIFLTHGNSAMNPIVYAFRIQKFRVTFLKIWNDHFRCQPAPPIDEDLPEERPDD

[2] = biological target: T2, hA1AR W188C^5.46 (Homo sapiens, UniProt P30542, W188C); assay: yeast liquid growth assay; assay type: cell-based
T2 sequence (P30542 1-326 W188C): T1 sequence (P30542 1-326 D55V) with V55D, W188C

[3] = biological target: T3, hA1AR P86L^3.31 (Homo sapiens, UniProt P30542, P86L); assay: yeast liquid growth assay; assay type: cell-based; settings: result in words
T3 construct: expressed in transfected cells; host or cells: S. cerevisiae MMY24
T3 sequence (P30542 1-326 P86L): T1 sequence (P30542 1-326 D55V) with V55D, P86L

[4] = biological target: T4, wild type hA1AR (Homo sapiens, UniProt P30542); assay: [3H]DPCPX radioligand displacement assay, CHO membranes; assay type: binding; settings: fraction of high-affinity state; two-site model
T4 sequence (P30542 1-326): T1 sequence (P30542 1-326 D55V) with V55D
Protocol: Transient transfection of CHO cells with wild type or mutated hA1AR plasmid constructs was performed using a polyethylenimine (PEI) method. Cells were seeded in 10-cm culture dishes to achieve 50–60% confluency 24 h prior to transfection. On the day of transfection, cells were transfected with a PEI: DNA ratio of 3:1 and a plasmid DNA amount of 10 μg/dish. Moreover, 24 h post-transfection, the medium was refreshed, and 48 h after transfection, cells were collected and membranes were prepared as previously described. Membranes were aliquoted in 250 or 100 μL and stored at −80 °C. Membrane protein concentrations were determined using the BCA method.
The displacement assays were performed as described previously. […] After the addition of 25 µL per well of the Microscint scintillation cocktail (PerkinElmer, Groningen, The Netherlands), the filter-bound radioactivity was measured by scintillation spectrometry in a Microbeta2® 2450 microplate counter (PerkinElmer).
All experimental data were analyzed by GraphPad Prism 7.0 or 8.0 (GraphPad Software Inc., San Diego, CA, USA). Data from yeast liquid growth and [^35S]GTPγS binding assays were analyzed by non-linear regression using “log (agonist) vs. response (three parameters)” or “log (inhibitor) vs. response (three parameters)” to obtain potency (EC50), inhibitory potency (IC50), and efficacy (Emax or Imax) values. […]

`OC[C@H]1O[C@@H](n2cnc3c(NC4CCCC4)ncnc32)[C@H](O)[C@@H]1O` [CPA, N^6-cyclopentyladenosine] was tested, and the agonist-induced receptor activation [1] was “could not be activated”, the “decrease in potency versus wild type hA1AR” value [2] was 10 fold and the Emax ([2]; ratio over basal activity of wild type hA1AR, 7 mM 3-AT) was 4.35 ± 0.10. The agonist-induced receptor activation [3] was “could not be activated” and the “Fraction (High)” value [4] was 0.15 ± 0.03.
